The values that follow come from BindingDB's records for PubMed 32222663 (n/a, 2020).

The experiment has as its target T1, Heparanase (Homo sapiens, UniProt Q9Y251).
T1 sequence (Q9Y251 whole entry): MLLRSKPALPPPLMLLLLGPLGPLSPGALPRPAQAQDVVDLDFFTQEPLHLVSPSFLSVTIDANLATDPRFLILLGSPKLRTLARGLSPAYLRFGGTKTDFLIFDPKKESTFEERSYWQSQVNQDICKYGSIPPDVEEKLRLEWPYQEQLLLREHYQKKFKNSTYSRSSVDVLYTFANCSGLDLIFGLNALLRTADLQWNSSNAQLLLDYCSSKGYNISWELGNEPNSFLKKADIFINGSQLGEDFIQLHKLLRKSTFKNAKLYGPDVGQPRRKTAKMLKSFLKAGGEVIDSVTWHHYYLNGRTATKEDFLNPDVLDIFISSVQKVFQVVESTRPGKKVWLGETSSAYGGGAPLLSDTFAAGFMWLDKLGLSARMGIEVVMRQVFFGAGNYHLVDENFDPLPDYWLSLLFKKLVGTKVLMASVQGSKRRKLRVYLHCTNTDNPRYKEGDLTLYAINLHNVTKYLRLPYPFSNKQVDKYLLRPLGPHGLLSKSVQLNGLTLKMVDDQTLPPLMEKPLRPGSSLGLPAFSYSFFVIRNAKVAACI
Briefly: Inhibition of recombinant human heparanase incubated for 4 hrs by beta-scintillation counter analysis.

For `O=S(=O)(O)OC[C@H]1O[C@H](O[C@H]2[C@H](OS(=O)(=O)O)[C@H](OS(=O)(=O)O)C(C3O[C@H](COS(=O)(=O)O)[C@@H](O[C@H]4O[C@H](COS(=O)(=O)O)[C@@H](O[C@H]5O[C@H](COS(=O)(=O)O)[C@@H](OS(=O)(=O)O)[C@H](OS(=O)(=O)O)[C@@H]5OS(=O)(=O)O)[C@H](OS(=O)(=O)O)[C@@H]4OS(=O)(=O)O)[C@H](OS(=O)(=O)O)[C@@H]3OS(=O)(=O)O)O[C@@H]2COS(=O)(=O)O)[C@@H](OS(=O)(=O)O)[C@@H](OS(=O)(=O)O)[C@@H]1O[C@H]1O[C@H](COS(=O)(=O)O)[C@@H](OS(=O)(=O)O)[C@H](OS(=O)(=O)O)[C@@H]1OS(=O)(=O)O` (stereo partly specified), the IC50 was found to be 5 nM.

One may read the IC50 as the concentration that inhibits the measured activity by half.
